Where “and” joins values, the source holds several entries; their conditions need not be identical. Identical values can stand only once. Entries after “also recorded” stand apart in the source; their conditions may differ.
Tests used:
[1] = system: RMR rats (5/6 nephrectomy); test: Protein concentration in urine (proteinuria) of RMR rats; assay type: in vivo, Male Wistar rats; settings: halofuginone 0.2 mg/kg/day oral, statistically significant from week 5 post-nephrectomy on (FIG. 2)
Experimental: Male Wistar rats (weighing 300±30 g at the start of the experiment) were used in this study. They were allowed to acclimatize to their environment for one week. Rats were assigned to undergo renal mass reduction (RMR) by 5/6 nephrectomy or Sham operation, under anesthesia with intraperitoneal injection of pentobarbital (35 mg/kg body weight). RMR was performed by ligature of 2 of 3 major branches of the left renal artery and right nephrectomy in the same session. Sham rats have undergone exposition of the kidneys and removal of the peri-renal fat. After 24 hours recovery the rats were assigned to one of the following groups: 1) Group I: RMR rats, oral gavage with halofuginone 0.2 mg/kg/day started 24 hours post surgery. 2) Group II: RMR rats, oral gavage with normal saline daily, started 24 hours post surgery. 3) Group III: age matched, sham operated rats served as the controls. […] Every week, systolic blood pressure was measured by tail cuff manometry and urine samples were collected individually in metabolic cages for determination of total protein and creatinine excretion. Protein concentration in urine was determined by a colorimetric method using pyrogallol-red molybdate complex (cobas integra 700, Roche). Body weight was also measured. […] Serum creatinine was measured with a Hitachi model 747 autoanalyzer, using the kinetic Jaffe method.

[2] = system: RMR rats (5/6 nephrectomy), renal fibrosis; test: Light microscopy of kidneys after 5/6 nephrectomy (RMR) in rats, semi-quantitative histological evaluation; assay type: in vivo, Male Wistar rats
Experimental: A solution of halofuginone was prepared by dissolution of powder of halofuginone hydrobromide in aqueous media containing suitable buffer. Male Wistar rats (weighing 300±30 g at the start of the experiment) were used in this study after being allowed to acclimatize to their environment for one week. Rats were assigned to undergo renal mass reduction (RMR) by 5/6 nephrectomy or sham operation, under anesthesia with intraperitoneal injection of pentobarbital (35 mg/kg body weight). RMR was performed by ligature of 2 of 3 major branches of the left renal artery and right nephrectomy in the same session. Sham rats undergo exposure of the kidneys and removal of the peri-renal fat, without undergoing RMR. After 24 hours recovery of the rats were assigned to one of the following groups: 1) Group I: RMR rats, oral gavage with halofuginone 0.2 mg/kg/day started 24 hours post surgery. 2) Group II: RMR rats, oral gavage with normal saline daily, started 24 hours post surgery. 3) Group III: age matched, sham operated rats served as the controls. All animals were allowed free access to a standard diet and water ad libitum. At sacrifice (10 weeks after RMR), kidneys were removed and processed for in situ hybridization, immunohistochemistry and histological evaluation. Light microscopy studies: specimens were fixed in 10% buffered formaldehyde and embedded in paraffin. Histological sections of 4-5μ thickness were stained with hematoxylin-eosin (HES), periodic acid Schiff (PAS) and Masson trichrome (light green). A semi-quantitative score was used to evaluate the degree of glomerulosclerosis, mesangial expansion and proliferation and tubulo-interstitial changes. A minimum of 30 glomeruli in each specimen was examined and the severity of the lesions was graded from 0 to 4+, according to the percentage of glomerular involvement. […] An injury score was obtained by multiplying the degree of damage (0-4+) by the percentage of glomeruli with the same degree of lesions. The evaluation of tubulointerstitial fibrosis was performed with the point-counting method using a Zeiss I integrating eyepiece.

SMILES: O=C(CC1NCCC[C@H]1O)Cn1cnc2cc(Br)c(Cl)cc2c1=O (stereo in doubt) [Halofuginone, 7-bromo-6-chloro-3-[3-(3-hydroxy-2-piperidinyl)-2-oxopropyl]-4(3H)-quinazolinone]
- levels of proteinuria versus control nephrectomized group [1]: lower levels of proteinuria
- tubulointerstitial fibrosis compared to the control group ([2]; halofuginone 0.2 mg/kg/day oral, RMR rats, 10 weeks): significant decrease
- presence of glomerulosclerosis and mesangial proliferation ([2]; halofuginone 0.2 mg/kg/day oral, RMR rats, 10 weeks, versus control): less accentuated
- Tubules ([2]; individual rats of Group I, halofuginone 0.2 mg/kg/day oral gavage, 10 weeks after RMR, light microscopy): Normal; also recorded: Few atrophic
- Glomerulus Proliferation ([2]; individual rats of Group I, halofuginone 0.2 mg/kg/day oral gavage, 10 weeks after RMR, light microscopy (preliminary results)): Mild (4×) and Moderate (2×)
- Glomerulus Sclerosis ([2]; individual rats of Group I, halofuginone 0.2 mg/kg/day oral gavage, 10 weeks after RMR, light microscopy, graded 0 to 4+): 0
